According to patent publication US11472791B2 (Incyte Corporation, priority 2019, dated 2022):

The molecules below were run against CDK2/Cyclin E1 (Homo sapiens (Human), UniProt P24941) (assay: CDK2/Cyclin E1 HTRF enzyme activity assay). Conditions: 1 mM ATP.
Format: biochemical
Method: Assays are conducted in white 384-well polystyrene plates in a final reaction volume of 8 μL. […] HTRF signals are read after 1 hour at room temperature on a PHERAstar FS plate reader (BMG Labtech). Data is analyzed with IDBS XLFit and GraphPad Prism 5.0 software using a three or four parameter dose response curve to determine IC50 for each compound.
`CN1CCC(n2cc(-c3nc(NC4CCN(S(C)(=O)=O)CC4)ncc3F)c(C(F)(F)F)n2)CC1` [Example 17, 5-Fluoro-4-(1-(1-methylpiperidin-4-yl)-3-(trifluoromethyl)-1H-pyrazol-4-yl)-N-(1-(methylsulfonyl)piperidin-4-yl)pyrimidin-2-amine] was tested, and the IC50 was under 50 nM.
For `CN1CCC(n2ncc(-c3nc(NC4CCN(S(C)(=O)=O)CC4)ncc3C(F)(F)F)c2C(F)(F)F)CC1` [Example 18, 4-(1-(1-Methylpiperidin-4-yl)-5-(trifluoromethyl)-1H-pyrazol-4-yl)-N-(1-(methylsulfonyl)piperidin-4-yl)-5-(trifluoromethyl)pyrimidin-2-amine], the IC50 was 50 to 200 nM.
`CS(=O)(=O)N1CC(Nc2ncc(C(F)(F)F)c(-c3cnn(C4CCOCC4)c3)n2)C1` [Example 20, N-(1-(Methylsulfonyl)azetidin-3-yl)-4-(1-(tetrahydro-2H-pyran-4-yl)-1H-pyrazol-4-yl)-5-(trifluoromethyl)pyrimidin-2-amine] showed an IC50 of 500 to 1000 nM.
`CS(=O)(=O)N1CCC(Nc2ncc(Cl)c(-c3cnn(C4CCOCC4)c3)n2)CC1` [Example 22, 5-Chloro-N-(1-(methylsulfonyl)piperidin-4-yl)-4-(1-(tetrahydro-2H-pyran-4-yl)-1H-pyrazol-4-yl)pyrimidin-2-amine] gave an IC50 of under 50 nM.
Work on `Cn1cnc(S(=O)(=O)N2CCC(Nc3ncc(C(F)(F)F)c(-c4cnn(C5CCOCC5)c4)n3)CC2)c1` [Example 23, N-(1-((1-Methyl-1H-imidazol-4-yl)sulfonyl)piperidin-4-yl)-4-(1-(tetrahydro-2H-pyran-4-yl)-1H-pyrazol-4-yl)-5-(trifluoromethyl)pyrimidin-2-amine] yielded an IC50 of under 50 nM.
`CCn1cnc(S(=O)(=O)N2CCC(Nc3ncc(C(F)(F)F)c(-c4cnn(C5CCOCC5)c4)n3)CC2)c1` [Example 24, N-(1-((1-Ethyl-1H-imidazol-4-yl)sulfonyl)piperidin-4-yl)-4-(1-(tetrahydro-2H-pyran-4-yl)-1H-pyrazol-4-yl)-5-(trifluoromethyl)pyrimidin-2-amine] was tested, and the IC50 was under 50 nM.
`Cn1cnc(S(=O)(=O)N2CCC(Nc3ncc(C(F)(F)F)c(-c4cnn(CC(F)(F)F)c4)n3)CC2)c1` [Example 25, N-(1-((1-Methyl-1H-imidazol-4-yl)sulfonyl)piperidin-4-yl)-4-(1-(2,2,2-trifluoroethyl)-1H-pyrazol-4-yl)-5-(trifluoromethyl)pyrimidin-2-amine] showed an IC50 of under 50 nM.
`Cn1cnc(S(=O)(=O)N2CCC(Nc3ncc(C(F)(F)F)c(-c4cnn([C@H]5CC[C@H](O)CC5)c4)n3)CC2)c1` [Example 26, trans-4-(4-(2-((1-((1-Methyl-1H-imidazol-4-yl)sulfonyl)piperidin-4-yl)amino)-5-(trifluoromethyl)pyrimidin-4-yl)-1H-pyrazol-1-yl)cyclohexan-1-ol] showed an IC50 of under 50 nM.
`Cc1nc(C(=O)N[C@]2(C)C[C@H](O)C2)ccc1-n1cc(-c2nc(NC3CCN(S(C)(=O)=O)CC3)ncc2C(F)(F)F)cn1` [Example 28, N-(cis-3-Hydroxy-1-methylcyclobutyl)-6-methyl-5-(4-(2-(1-(methylsulfonyl)piperidin-4-ylamino)-5-(trifluoromethyl)pyrimidin-4-yl)-1H-pyrazol-1-yl)picolinamide] was tested, and the IC50 was under 50 nM.
Molecule `CNCc1ccc(-n2cc(-c3nc(NC4CCN(S(C)(=O)=O)CC4)ncc3C(F)(F)F)cn2)c(Cl)c1` [Example 29, 4-(1-(2-Chloro-4-((methylamino)methyl)phenyl)-1H-pyrazol-4-yl)-V-(1-(methylsulfonyl)piperidin-4-yl)-5-(trifluoromethyl)pyrimidin-2-amine] has an IC50 of under 50 nM.
In the case of `CC(C)(C(N)=O)n1cc(-c2nc(NC3CCN(S(C)(=O)=O)CC3)ncc2C(F)(F)F)cn1` [Example 30, 2-Methyl-2-(4-(2-((1-(methylsulfonyl)piperidin-4-yl)amino)-5-(trifluoromethyl)pyrimidin-4-yl)-1H-pyrazol-1-yl)propanamide], the IC50 is reported as under 50 nM.
Work on `Cn1cnc(S(=O)(=O)N2CCC(Nc3ncc(C(F)(F)F)c(-c4cnn(CC(F)F)c4)n3)CC2)c1` [Example 31, 4-(1-(2,2-Difluoroethyl)-1H-pyrazol-4-yl)-N-(1-((1-methyl-1H-imidazol-4-yl)sulfonyl)piperidin-4-yl)-5-(trifluoromethyl)pyrimidin-2-amine] yielded an IC50 of under 50 nM.
`Cn1cnc(S(=O)(=O)N2CCC(Nc3ncc(C(F)(F)F)c(-c4cnn(CC5CC5)c4)n3)CC2)c1` [Example 32, 4-(1-(Cyclopropylmethyl)-1H-pyrazol-4-yl)-N-(1-((1-methyl-1H-imidazol-4-yl)sulfonyl)piperidin-4-yl)-5-(trifluoromethyl)pyrimidin-2-amine] showed an IC50 of under 50 nM.
For `Cn1cnc(S(=O)(=O)N2CCC(Nc3ncc(C(F)(F)F)c(-c4cnn(C[C@H]5CCOC5)c4)n3)CC2)c1` [Example 33, (R)—N-(1-((1-Methyl-1H-imidazol-4-yl)sulfonyl)piperidin-4-yl)-4-(1-((tetrahydrofuran-3-yl)methyl)-1H-pyrazol-4-yl)-5-(trifluoromethyl)pyrimidin-2-amine], the IC50 was under 50 nM.
`CS(=O)(=O)N1CCC(Nc2ncc(C(F)(F)F)c(-c3cnn([C@H]4CC[C@H](C#N)CC4)c3)n2)CC1` [Example 34, trans-4-(4-(2-((1-(Methylsulfonyl)piperidin-4-yl)amino)-5-(trifluoromethyl)pyrimidin-4-yl)-1H-pyrazol-1-yl)cyclohexane-1-carbonitrile] gave an IC50 of under 50 nM.
`Cc1c(-n2cc(-c3nc(NC4CCN(S(=O)(=O)c5cn(C)cn5)CC4)ncc3C(F)(F)F)cn2)ccnc1N` [Example 35, 4-(1-(2-Amino-3-methylpyridin-4-yl)-1H-pyrazol-4-yl)-N-(1-((1-methyl-1H-imidazol-4-yl)sulfonyl)piperidin-4-yl)-5-(trifluoromethyl)pyrimidin-2-amine] gave an IC50 of under 50 nM.
`Cn1cnc(S(=O)(=O)N2CCC(Nc3ncc(C(F)(F)F)c(-c4cnn(-c5ccnc(N)c5Cl)c4)n3)CC2)c1` [Example 36, 4-(1-(2-Amino-3-chloropyridin-4-yl)-1H-pyrazol-4-yl)-N-(1-((1-methyl-1H-imidazol-4-yl)sulfonyl)piperidin-4-yl)-5-(trifluoromethyl)pyrimidin-2-amine] showed an IC50 of under 50 nM.
`CS(=O)(=O)N1CCC(Nc2ncc(C(F)(F)F)c(-c3cnn(-c4cc(N)ncc4C(F)(F)F)c3)n2)CC1` [Example 37, 4-(1-(2-Amino-5-(trifluoromethyl)pyridin-4-yl)-1H-pyrazol-4-yl)-N-(1-(methylsulfonyl)piperidin-4-yl)-5-(trifluoromethyl)pyrimidin-2-amine] gave an IC50 of under 50 nM.
Work on `Cn1cnc(S(=O)(=O)N2CCC(Nc3ncc(C#N)c(-c4cnn(CC(F)(F)F)c4)n3)CC2)c1` [Example 38, 2-((1-((1-Methyl-1H-imidazol-4-yl)sulfonyl)piperidin-4-yl)amino)-4-(1-(2,2,2-trifluoroethyl)-1H-pyrazol-4-yl)pyrimidine-5-carbonitrile] yielded an IC50 of under 50 nM.
With `N#Cc1cnc(NC2CCN(S(=O)(=O)c3ccccn3)CC2)nc1-c1cnn(CC(F)(F)F)c1` [Example 39, 2-((1-(Pyridin-2-ylsulfonyl)piperidin-4-yl)amino)-4-(1-(2,2,2-trifluoroethyl)-1H-pyrazol-4-yl)pyrimidine-5-carbonitrile] the IC50 was under 50 nM.
`Cn1cnc(S(=O)(=O)N2CCC(Nc3ncc(Cl)c(-c4cnn(CC(F)(F)F)c4)n3)CC2)c1` [Example 40, 5-Chloro-N-(1-((1-methyl-1H-imidazol-4-yl)sulfonyl)piperidin-4-yl)-4-(1-(2,2,2-trifluoroethyl)-1H-pyrazol-4-yl)pyrimidin-2-amine] gave an IC50 of under 50 nM.
For `CO[C@H]1CC[C@H](n2cc(-c3nc(N[C@H]4CCN(S(=O)(=O)c5cn(C)cn5)C[C@H]4F)ncc3C(F)(F)F)cn2)CC1` [Example 43, N-((3R,4S)-3-Fluoro-1-((1-methyl-1H-imidazol-4-yl)sulfonyl)piperidin-4-yl)-4-(1-((trans)-4-methoxycyclohexyl)-1H-pyrazol-4-yl)-5-(trifluoromethyl)pyrimidin-2-amine], the IC50 was under 50 nM.
In the case of `CC(C)S(=O)(=O)N1CCC(Nc2ncc(C(F)(F)F)c(-c3cnn([C@H]4C[C@@](C)(N)C4)c3)n2)CC1` [Example 45, 4-(1-((1s,3s)-3-Amino-3-methylcyclobutyl)-1H-pyrazol-4-yl)-N-(1-(isopropylsulfonyl)piperidin-4-yl)-5-(trifluoromethyl)pyrimidin-2-amine], the IC50 is reported as under 50 nM.
In the case of `C[C@]1(N)C[C@@H](n2cc(-c3nc(NC4CCN(S(=O)(=O)C5CCC5)CC4)ncc3C(F)(F)F)cn2)C1` [Example 46, 4-(1-((1s,3s)-3-Amino-3-methylcyclobutyl)-1H-pyrazol-4-yl)-N-(1-(cyclobutylsulfonyl)piperidin-4-yl)-5-(trifluoromethyl)pyrimidin-2-amine], the IC50 is reported as under 50 nM.
`C[C@@H]1CN(S(=O)(=O)C2CC2)CC[C@@H]1Nc1ncc(C(F)(F)F)c(-c2cnn([C@H]3C[C@@](C)(N)C3)c2)n1` [Example 47, 4-(1-((1s,3r)-3-Amino-3-methylcyclobutyl)-1H-pyrazol-4-yl)-N-((3R,4S)-1-(cyclopropylsulfonyl)-3-methylpiperidin-4-yl)-5-(trifluoromethyl)pyrimidin-2-amine] gave an IC50 of under 50 nM.
`C[C@]1(N)C[C@@H](n2cc(-c3nc(N[C@H]4CCN(S(=O)(=O)C5CCC5)C[C@H]4F)ncc3C(F)(F)F)cn2)C1` [Example 48, 4-(1-((1s,3r)-3-Amino-3-methylcyclobutyl)-1H-pyrazol-4-yl)-N-((3R,4S)-1-(cyclobutylsulfonyl)-3-fluoropiperidin-4-yl)-5-(trifluoromethyl)pyrimidin-2-amine] gave an IC50 of under 50 nM.
Work on `CN[C@H]1C[C@@H](n2cc(-c3nc(NC4CCN(S(=O)(=O)c5ccccn5)CC4)ncc3C(F)(F)F)cn2)C1` [Example 49, 4-(1-((1s,3s)-3-(Methylamino)cyclobutyl)-1H-pyrazol-4-yl)-N-(1-(pyridin-2-ylsulfonyl)piperidin-4-yl)-5-(trifluoromethyl)pyrimidin-2-amine] yielded an IC50 of under 50 nM.
